Where a SMILES comes first, the peptide text is derived from it. [ ]: non-standard residue; d: D form. The star is where a group is joined. Nle = CCCC[C@H](N)C(=O)O; Cbz = O=C(OCc1ccccc1)*
Assays:
[1] = tested on: p135 O-glycosylation in pancreatic islets; test: Pancreatic islet p135 O-glycosylation (RL2 immunoprecipitation and Western blot); type: cell-based, rat; conditions: for inhibition of p135 O-glycosylation: comparison with NOC-15, FIG. 12
Experimental: Rat pancreatic islets were isolated, counted into tubes and pre-incubated with 3 mM glucose. Following pre-incubation, islets were stimulated with 3 mM glucose, 5 mM STZ, 5 mM NOC-15, or 5 mM DPTA. NOC-15 ((Z)-1-[N-(3-Ammoniopropyl)-N-(n-propyl)amino]diazen-ium-1,2-diolate, also known as PAPA NONOate) is a structural analog of […] (FIG. 9). At the end of the experiment, O-glycosylated proteins were immunoprecipitated with RL2 antibody, which binds to O-linked N-acetylglucosamine. Immunoprecipitated proteins were run out on a 6.5% SDS-PAGE gel and the proteins were then transferred to a nitrocellulose blot. The blot was then probed with RL2 antibody, which was detected by the ECL method. The blot was exposed to X-ray film and the film was developed and photographed. […] The structure and action of NOC-15 can thus be used as a basis to synthesize drugs that can be used to prevent and/or treat diabetes.

pancreatic islets = test: TUNEL assay and p53 staining of pancreatic slices from STZ-treated rats; type: in vivo, rat
Experimental: The effect of streptozotocin on p53 accumulation in the islets was determined using immunohistochemistical analysis of pancreatic slices from rats treated for various times with STZ. […] This assay has been described thoroughly (Liu et al., 2000). The TUNEL positivity peaks at about 22-24 hours after the administration of STZ. When the tissue was stained with p53 antibodies, it was noted that p53 accumulation preceded the apoptosis. […] This corresponds with the observation the O-GlcNAc transferase is much more highly expressed in the endocrine pancreas. STZ also is toxic to the somatotropes in the pituitary where O-GlcNAc transferase is highly expressed. Thus, it is predicted there where O-GlcNAc transferase is abundant, STZ-sensitivity should be seen.

[2] = tested on: TGFα promoter β-gal reporter in pancreatic β-cells; test: TGFα-βgal reporter activity in islets after streptozotocin injection; type: in vivo, mouse; conditions: TGFα-βgal reporter mice, dose that causes β-cell apoptosis
Experimental: The TGFα promoter was placed in front of the β-galactosidase reporter gene and developed two lines of transgenic mice. The line with the best reporter activity was used in all subsequent experiments. Tissue expression of the reporter was detected as follows: tissues were quickly excised, cut into pieces, and fixed in 4% paraformaldehyde (made in PBS, pH 7.5) for 30 min at 4° C. Tissue sections were rinsed three times 10 min each in ice-cold PBS, immersed in freshly prepared staining solution [10 ml solution of PBS (pH 7.4) containing 2 mM MgCl2, 0.01% sodium deoxycholate, 0.02% NP40, 0.1% X-gal dissolved in dimethylformamide, 82.5 mg potassium ferricyanide, and 94.5 mg potassium ferrocyanide], and incubated overnight at 37° C. The reaction was stopped by rinsing the organs in PBS. Sampleswere stored in 70% ethanol at 4° C. […] For example, β-gal activity was detected in the pituitary and in some neurons, sites where native TGFα had been detected before. […] Of particular interest in this regard was the absence of staining in the exocrine and endocrine pancreas.
Because p53 accumulates in the islet in response to STZ, and TGFα transcription is driven by p53, it is reasonable to examine the TGFα reporter mice for TGFα promoter activation in the islets. Mice were injected with streptozotocin at the dose that cause β-cell apoptosis. […]

hippocampal neurons = test: Intracerebroventricular streptozotocin in TGFα-βgal mice: p53 staining and reporter function in brain; type: in vivo, mouse
Experimental: A number of research groups have developed techniques of injecting streptozotocin into the cerebral ventricles (Lannert & Hoyer, 1998; Weinstock et al., 2001; Sharma & Gupta, 2002). To determine if treatment with streptozotocin causes p53 accumulation in the brain, freshly prepared streptozotocin can be injected stereotactically into the cerebral ventricles, and the brain tissues can then be stained for the presence of p53. When the control TGFα-βgal mice were injected with vehicle alone, no p53 was detected 16 hours post injection. […] STZ was also injected into TGFα-βgal mice with a homozygous knock-out of p53.
The brains slices from similar mice receiving icv injections 36 hours prior to sacrifice were examined for TGFα-βgal reporter function.

[3] = tested on: hippocampal neurons (CA1 region); test: RL2 immunostaining of brain O-GlcNAc after cerebroventricular streptozotocin; type: in vivo, rat; conditions: 6 hours after injection
Experimental: To determine if streptozotocin causes hippocampal neuron O-GlcNAc accumulation, the drug was delivered stereotactically to the cerebroventricles of a rat brain. The brain tissues were then stained for O-GlcNAc content using the O-GlcNAc-specific monoclonal antibody, RL2. Staining of rat tissue by this mouse antibody is easier because detection is not hampered by endogenous mouse IgG. Staining is blocked by preincubation of RL2 with GlcNAc, but not GalNAc or glucosamine (needs acetylation) or other sugars. The bound RL2 can be detected by fluorescent-tagged antimouse IgG antibody. […] At 6 hours post-injection, the animals were sacrificed and brain O-GlcNAc content was detected with RL2 immunostaining as previously described (Liu et al., 2000).

[4] = biological target: T1, brain proteasome LLVY chymotryptic activity (Rattus norvegicus, UniProt P28075); test: suc-LLVY-AMC cleavage in brain extract of streptozotocin-injected animals; type: in vivo
T1 construct: Brain extract was prepared from animals injected with or without streptozotocin; from tissue; host or cells: brain extract
T1 sequence (P28075 60-263): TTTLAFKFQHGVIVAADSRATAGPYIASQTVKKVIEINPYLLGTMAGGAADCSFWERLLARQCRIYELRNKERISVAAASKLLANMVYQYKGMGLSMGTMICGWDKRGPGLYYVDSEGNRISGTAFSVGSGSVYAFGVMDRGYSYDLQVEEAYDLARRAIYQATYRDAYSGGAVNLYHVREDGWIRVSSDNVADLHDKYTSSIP
Experimental: To determine whether STZ-injected animals display a n alteration in proteasomal function, the cleavage of the peptide LLVY was examined following streptozotocin treatment. Brain extract was prepared from animals injected with or without streptozotocin, and suc-LLVY-AMC was added to the extract.

[5] = tested on: Sp1 proteasome degradation; test: Sp1 depletion in cells under low glucose and cAMP accumulation; type: cell-based
Excerpt: This study therefore correlated the stability of Sp1 against proteasome degradation with the level of Sp1 modification by O-GleNAc.
The depletion of O-GlcNAc on Sp1 and other proteins appeared to have resulted both from the glucose starvation and from the cAMP.

[6] = tested on: proteasome processing of Sp1 in nuclear extract; test: Sp1 degradation by proteasome in nuclear extract; type: biochemical; conditions: activated nuclear extract
[7] = biological target: T2, Purified recombinant O-GlcNAc transferase (Homo sapiens, UniProt O15294); test: Inhibition of purified recombinant O-GlcNAc transferase; type: biochemical
T2 sequence (O15294 1-1046): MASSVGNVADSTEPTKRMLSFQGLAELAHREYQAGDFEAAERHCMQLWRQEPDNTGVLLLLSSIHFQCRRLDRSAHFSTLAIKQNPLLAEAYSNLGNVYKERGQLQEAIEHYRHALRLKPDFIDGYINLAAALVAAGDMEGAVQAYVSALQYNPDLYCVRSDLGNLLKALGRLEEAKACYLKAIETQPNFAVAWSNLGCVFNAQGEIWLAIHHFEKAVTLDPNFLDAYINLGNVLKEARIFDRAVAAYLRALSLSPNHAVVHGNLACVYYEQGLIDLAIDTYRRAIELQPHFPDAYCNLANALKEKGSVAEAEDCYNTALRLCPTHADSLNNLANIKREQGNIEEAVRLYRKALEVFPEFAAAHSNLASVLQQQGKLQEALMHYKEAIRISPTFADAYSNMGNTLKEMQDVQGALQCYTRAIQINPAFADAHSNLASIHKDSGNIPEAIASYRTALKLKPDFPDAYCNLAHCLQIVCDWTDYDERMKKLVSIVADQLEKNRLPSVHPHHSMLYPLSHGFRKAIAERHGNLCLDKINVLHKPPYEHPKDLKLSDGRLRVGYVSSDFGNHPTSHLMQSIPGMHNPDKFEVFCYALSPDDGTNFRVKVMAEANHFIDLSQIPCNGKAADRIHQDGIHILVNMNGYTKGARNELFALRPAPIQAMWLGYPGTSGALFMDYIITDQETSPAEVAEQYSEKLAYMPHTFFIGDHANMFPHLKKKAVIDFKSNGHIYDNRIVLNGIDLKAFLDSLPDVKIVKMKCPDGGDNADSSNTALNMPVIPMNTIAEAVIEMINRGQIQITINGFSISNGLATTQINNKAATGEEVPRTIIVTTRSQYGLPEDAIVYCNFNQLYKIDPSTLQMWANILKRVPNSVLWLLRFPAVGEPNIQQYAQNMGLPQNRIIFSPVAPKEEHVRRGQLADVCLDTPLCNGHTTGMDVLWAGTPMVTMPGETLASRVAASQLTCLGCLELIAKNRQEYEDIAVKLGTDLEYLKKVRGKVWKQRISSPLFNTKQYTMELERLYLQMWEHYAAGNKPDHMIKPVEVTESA
Experimental: (§1) Another chemical means of inhibiting O-GlcNAc transferase has been discovered. Another long known diabetogenic drug, alloxan (ALX) (FIG. 8 above), is a uracil analog. Injections of this drug into laboratory rats also causes a relatively specific death of the pancreatic β-cells. […] Purified recombinant O-GlcNAc transferase is inhibited half-maximally by 0.1 mM alloxan, compatible with the dose of this drug that causes diabetes. These studies indicate that an analog of UDP-GlcNAc that mimics the uracil moiety like alloxan, might be an index compound for the discovery of other UDP-GlcNAc like molecules that inhibit the O-GlcNAc transferase.

[8] = tested on: O-GlcNAc modification of p135 in isolated β-cells; test: O-GlcNAc modification of p135 in isolated β-cells treated with alloxan; type: cell-based
Experimental: as §1

[9] = biological target: T3, proteasome chymotryptic activity in NRK nuclear extracts (Rattus norvegicus, UniProt P28075); test: suc-LLVY-AMC proteasome peptidase assay in NRK nuclear extracts; type: biochemical; conditions: cells treated before extract preparation; data not shown
T3 construct: endogenous in cells; host or cells: NRK cells, nuclear extract
T3 sequence (P28075 60-263): T1 sequence (P28075 60-263)
Experimental: The chymotryptic activity of the proteasome itself can be measured using short synthetic peptides. The peptide, N-succinyl-Leu-Leu-Val-Tyr-7-amido-4-methylcoumarin (suc-LLVY-AMC) (Sigma), is coupled to a fluorescent indicator, and the cleavage can be monitored and quantitated by a fluorometer. […] The reaction is carried out in a 96 well plate.
If the chymotryptic cleavage has occurred, the fluorescence can b e excited with UV light at 365 nm and detected by a CCDdigital camera coupled to a computer. Because the LLVY peptide can be cleaved by any enzyme having chymotryptic activity, cleavage is not specifically proteasome-dependent. However, if cleavage is blocked by a wide spectrum proteasome inhibitors, then it is reasonable to deduce that the detected fluorescence is proteasome-dependent.
Proteasome peptidase activity in activated NRK nuclear extracts was examined with this assay. The activity could be inhibited by preincubating the extract with known proteasome inhibitors indicating the fluorescent signal derives from authentic proteasome activity (FIG. 2). […] When the extract was exposed briefly to GST-OGT plus UDP-GlcNAc and then the O-GlcNAc transferase was removed, the chymotryptic activity was eliminated. GST had no effect on the proteasome activity. […] The chymotryptic activity of the proteasome was stimulated by this treatment.

Structure (SMILES): CN(N=O)C(=O)N[C@H]1C(O)O[C@H](CO)[C@@H](O)[C@@H]1O (mixture of isomers) [streptozotocin]
- effect on p135 O-glycosylation ([1]; rat islets, 5 mM): stimulated
- p53 accumulation in islets (pancreatic islets; at 16 hours): well established
- time of peak TUNEL positivity after administration (pancreatic islets; rat islets): 22 to 24 h
- apoptosis in islets by TUNEL assay (pancreatic islets; rats treated with STZ): causes apoptosis
- β-gal reporter activity in pancreas [2]: appeared in the β-cells but not exocrine pancreas
- p53 by immunohistochemistry in neurons of the hippocampus (hippocampal neurons; 16 hours post icv injection): readily detectable
- TGFα-βgal reporter function in hippocampal neurons (hippocampal neurons; icv injection 36 hours prior to sacrifice, wildtype TGFα-βgal mice): show reporter function
- O-GlcNAc signal in hippocampal neurons (RL2) [3]: marked increase
- LLVY chymotryptic activity in the brains of treated animals ([4]; brain extract, preliminary results): marked inhibition

Structure (SMILES): NCCCN(CCCN)/[N+]([O-])=N/O [DPTA]
- inhibition of p135 O-glycosylation [1]: do not inhibit

Structure (SMILES): CCCC[C@@H](C=O)NC(=O)[C@H](CC(C)C)NC(=O)[C@H](CC(C)C)NC(C)=O [LLnL] (Ac-Leu-Leu-[Nle]-aldehyde)
- loss of Sp1 under low glucose and cAMP accumulation [5]: blocked

Structure (SMILES): CC(C)C[C@@H](C=O)NC(=O)[C@H](CC(C)C)NC(=O)[C@H](CC(C)C)NC(=O)OCc1ccccc1 [MG132] (Cbz-Leu-Leu-Leu-aldehyde)
- loss of Sp1 under low glucose and cAMP accumulation [5]: blocked

Structure (SMILES): CCCN(CCCN)/[N+]([O-])=N/O [NOC-15, (Z)-1-[N-(3-Ammoniopropyl)-N-(n-propyl)amino]diazen-ium-1,2-diolate]
- inhibition of STZ-induced p135 O-glycosylation ([1]; rat islets, 5 mM streptozotocin and 5 mM NOC-15): almost completely inhibiting

Structure (SMILES): NCCCNCCCCN(CCCN)/[N+]([O-])=N/O [Spermine NONOate]
- inhibition of p135 O-glycosylation [1]: do not inhibit

Structure (SMILES): CC(=O)N[C@H]1[C@@H](OP(=O)(O)OP(=O)(O)OC[C@H]2O[C@@H](n3ccc(=O)[nH]c3=O)[C@H](O)[C@@H]2O)O[C@H](CO)[C@H](O)[C@@H]1O [UDP-GalNAc]
- effect on the inhibitory effect of catalytically active O-GlcNAc transferase on Sp1 processing [6]: partially blocked

Structure (SMILES): O=C1NC(=O)C(=O)C(=O)N1 [alloxan]
- IC50 [7]: 100 µM
- increase in the O-GlcNAc modification of p135 in response to glucose or glucosamine [8]: fail to display an increase

Structure (SMILES): N[C@H]1C(O)O[C@H](CO)[C@@H](O)[C@@H]1O (stereo partly shown) [glucosamine]
- proteasome chymotryptic activity of extract from treated cells [9]: does not display this activity
- Sp1 degradation after glucose starvation and forskolin ([5]; cells provided glucosamine): degradation decreased

Structure (SMILES): CC(=O)N[C@@H](CSC(=O)[C@]1([C@@H](O)C(C)C)NC(=O)[C@H](C)[C@@H]1O)C(=O)O [lactacystin]
- proteasome chymotryptic activity of extract from treated cells [9]: does not display this activity
- loss of Sp1 under low glucose and cAMP accumulation [5]: blocked

Structure (SMILES): CC(C)[C@H](O)[C@@]12NC(=O)[C@H](C)[C@@H]1OC2=O [β-lactone]
- suc-LLVY-AMC fluorescence in brain extract ([4]; inhibitor added to extract): inhibited

Source: patent US20030186948A1, “O-linked N-acetylglucosamine pathway in the pathogenesis of neurodegeneration and diabetes” (priority 2000, published 2003)
